What was measured:
CDK13 = CDK13 (Homo sapiens, UniProt Q14004); experiment: Western blot degradation of CDK13 (Example 3); format: cell-based; parameters: degradation of CDK12/13 protein in leukemia cells KASUMI-1, MV4-11, and Jurkat; endogenous in cells; conditions: DC50 classes; cell line not given; read-out: CDK13 degradation Activity
CDK12 = CDK12 (Homo sapiens, UniProt Q9NYV4); experiment: Western blot degradation of CDK12 (Example 3); format: cell-based; parameters: degradation of CDK12/13 protein in leukemia cells KASUMI-1, MV4-11, and Jurkat; endogenous in cells; conditions: DC50 classes, cell line not given; for DC50: read-out: CDK12 degradation Activity
Sequence of CDK12 (Q9NYV4 whole entry): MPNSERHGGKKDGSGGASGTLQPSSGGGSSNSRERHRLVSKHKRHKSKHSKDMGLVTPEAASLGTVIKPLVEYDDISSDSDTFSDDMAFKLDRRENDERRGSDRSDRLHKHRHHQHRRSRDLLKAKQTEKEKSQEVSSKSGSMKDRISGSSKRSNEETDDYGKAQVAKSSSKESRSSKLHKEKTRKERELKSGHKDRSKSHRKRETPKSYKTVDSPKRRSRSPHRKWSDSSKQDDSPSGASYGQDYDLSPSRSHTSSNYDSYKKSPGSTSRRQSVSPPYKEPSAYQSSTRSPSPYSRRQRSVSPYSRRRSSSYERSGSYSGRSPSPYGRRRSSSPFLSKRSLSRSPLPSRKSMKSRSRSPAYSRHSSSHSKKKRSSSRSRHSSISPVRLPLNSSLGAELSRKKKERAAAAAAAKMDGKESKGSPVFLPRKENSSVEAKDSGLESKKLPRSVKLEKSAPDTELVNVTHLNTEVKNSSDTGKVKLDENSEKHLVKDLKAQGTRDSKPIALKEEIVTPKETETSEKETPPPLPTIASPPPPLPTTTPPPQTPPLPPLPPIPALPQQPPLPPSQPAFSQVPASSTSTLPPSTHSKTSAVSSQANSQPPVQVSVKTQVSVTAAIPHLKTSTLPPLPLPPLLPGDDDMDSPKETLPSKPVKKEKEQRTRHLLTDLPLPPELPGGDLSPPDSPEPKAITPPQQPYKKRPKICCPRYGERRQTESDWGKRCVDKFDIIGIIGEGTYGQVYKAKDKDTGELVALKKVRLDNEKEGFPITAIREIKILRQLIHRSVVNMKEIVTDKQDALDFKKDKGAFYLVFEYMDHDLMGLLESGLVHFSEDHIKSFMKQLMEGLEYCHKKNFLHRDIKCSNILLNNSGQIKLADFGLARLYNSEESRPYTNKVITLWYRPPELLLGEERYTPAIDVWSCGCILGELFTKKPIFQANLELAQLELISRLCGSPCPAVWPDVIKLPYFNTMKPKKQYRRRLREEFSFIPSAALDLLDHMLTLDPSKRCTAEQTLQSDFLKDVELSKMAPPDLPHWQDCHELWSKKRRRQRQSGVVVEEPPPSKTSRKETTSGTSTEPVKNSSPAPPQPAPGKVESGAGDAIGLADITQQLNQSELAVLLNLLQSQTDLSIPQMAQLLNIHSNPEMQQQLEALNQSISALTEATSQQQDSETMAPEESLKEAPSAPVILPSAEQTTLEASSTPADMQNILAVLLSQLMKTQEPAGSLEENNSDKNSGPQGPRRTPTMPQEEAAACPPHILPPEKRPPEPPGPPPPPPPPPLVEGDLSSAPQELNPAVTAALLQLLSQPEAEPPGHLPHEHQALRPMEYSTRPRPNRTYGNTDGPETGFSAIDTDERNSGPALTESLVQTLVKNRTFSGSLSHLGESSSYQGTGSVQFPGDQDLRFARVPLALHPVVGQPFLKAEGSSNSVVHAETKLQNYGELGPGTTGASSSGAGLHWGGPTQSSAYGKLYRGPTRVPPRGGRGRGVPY
Sequence of CDK12 (O75909 whole entry partner): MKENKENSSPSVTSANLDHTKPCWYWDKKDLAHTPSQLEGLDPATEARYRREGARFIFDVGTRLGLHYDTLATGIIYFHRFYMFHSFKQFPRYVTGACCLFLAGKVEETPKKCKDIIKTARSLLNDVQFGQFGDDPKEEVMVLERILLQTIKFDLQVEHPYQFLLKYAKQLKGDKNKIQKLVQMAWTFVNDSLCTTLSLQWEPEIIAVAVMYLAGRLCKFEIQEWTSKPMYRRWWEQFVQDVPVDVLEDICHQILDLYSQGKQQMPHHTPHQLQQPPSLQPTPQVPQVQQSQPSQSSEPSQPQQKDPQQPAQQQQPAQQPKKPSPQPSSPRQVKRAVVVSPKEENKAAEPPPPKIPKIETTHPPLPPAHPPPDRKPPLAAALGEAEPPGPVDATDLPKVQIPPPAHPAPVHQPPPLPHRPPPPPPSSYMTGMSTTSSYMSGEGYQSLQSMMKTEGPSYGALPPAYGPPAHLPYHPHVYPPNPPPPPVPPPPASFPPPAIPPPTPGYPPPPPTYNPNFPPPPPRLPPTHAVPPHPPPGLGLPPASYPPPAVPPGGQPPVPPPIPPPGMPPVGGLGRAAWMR

Sequence of CDK13 (Q14004 whole entry): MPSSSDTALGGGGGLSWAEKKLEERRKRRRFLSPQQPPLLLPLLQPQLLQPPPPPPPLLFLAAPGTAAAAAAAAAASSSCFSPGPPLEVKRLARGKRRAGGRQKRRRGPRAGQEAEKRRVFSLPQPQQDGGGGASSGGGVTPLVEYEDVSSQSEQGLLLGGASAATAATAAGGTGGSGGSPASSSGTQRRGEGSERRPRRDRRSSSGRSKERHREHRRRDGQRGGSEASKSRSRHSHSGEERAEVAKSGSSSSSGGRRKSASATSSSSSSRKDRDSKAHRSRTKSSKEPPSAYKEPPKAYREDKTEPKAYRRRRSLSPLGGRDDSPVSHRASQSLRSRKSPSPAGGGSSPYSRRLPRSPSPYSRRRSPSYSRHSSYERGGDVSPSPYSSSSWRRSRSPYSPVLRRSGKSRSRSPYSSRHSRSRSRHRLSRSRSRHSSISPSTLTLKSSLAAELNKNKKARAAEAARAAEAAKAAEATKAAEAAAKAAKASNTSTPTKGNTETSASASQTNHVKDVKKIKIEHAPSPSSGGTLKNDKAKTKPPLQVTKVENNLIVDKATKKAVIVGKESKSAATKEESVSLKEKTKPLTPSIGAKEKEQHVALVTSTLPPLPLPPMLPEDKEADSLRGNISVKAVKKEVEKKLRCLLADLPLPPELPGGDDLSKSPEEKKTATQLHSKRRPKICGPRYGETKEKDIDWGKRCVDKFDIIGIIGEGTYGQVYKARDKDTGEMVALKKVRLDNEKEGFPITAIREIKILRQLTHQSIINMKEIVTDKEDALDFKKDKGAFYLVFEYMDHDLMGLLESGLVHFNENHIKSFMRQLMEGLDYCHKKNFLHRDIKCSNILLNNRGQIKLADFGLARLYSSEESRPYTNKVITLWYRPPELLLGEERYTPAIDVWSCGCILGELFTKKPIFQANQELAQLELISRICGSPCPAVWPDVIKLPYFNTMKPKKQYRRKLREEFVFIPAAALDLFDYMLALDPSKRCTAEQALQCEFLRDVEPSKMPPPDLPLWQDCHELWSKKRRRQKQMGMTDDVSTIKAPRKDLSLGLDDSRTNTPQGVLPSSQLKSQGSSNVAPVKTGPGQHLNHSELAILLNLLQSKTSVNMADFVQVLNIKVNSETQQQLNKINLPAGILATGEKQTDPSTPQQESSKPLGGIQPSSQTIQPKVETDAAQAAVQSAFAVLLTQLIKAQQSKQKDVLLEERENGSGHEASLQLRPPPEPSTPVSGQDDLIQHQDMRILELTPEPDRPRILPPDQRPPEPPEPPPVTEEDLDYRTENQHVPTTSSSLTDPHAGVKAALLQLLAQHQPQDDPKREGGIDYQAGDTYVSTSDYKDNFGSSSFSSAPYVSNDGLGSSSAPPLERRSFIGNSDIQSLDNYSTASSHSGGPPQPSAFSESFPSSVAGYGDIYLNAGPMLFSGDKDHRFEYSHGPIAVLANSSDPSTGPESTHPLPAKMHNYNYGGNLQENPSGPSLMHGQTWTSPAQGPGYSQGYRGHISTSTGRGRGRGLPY
Sequence of CDK13 (O75909 whole entry partner): as the sequence (O75909 whole entry partner) above

| SMILES | DC50 (CDK13) [nM] | DC50 (CDK12) [nM] | CDK12 degradation Activity (CDK12) |
| --- | --- | --- | --- |
| CC(=O)N(c1ccc(-c2ccc3c(c2)CCN(CC(=O)N[C@H](C(=O)N2C[C@H](O)C[C@H]2C(=O)N[C@@H](C)c2ccc(-c4scnc4C)cc2)C(C)(C)C)C3)cc1)[C@H]1CC[C@H](Nc2ncc3ccccc3n2)CC1 [Formula 149, (2S,4R)-1-((S)-3,3-dimethyl-2-(2-(6-(4-(N-((1R,4R)-4-(quinazolin-2-ylamino)cyclohexyl)acetamido)phenyl)-3,4-dihydroisoquinolin-2(1H)-yl)acetamido)butanoyl)-4-hydroxy-N—((S)-1-(4-(4-methylthiazol-5-yl)phenyl)ethyl)pyrrolidine-2-carboxamide] | 1000 to 3000 | 500 to 1000 |  |
| CC(=O)N(c1ccc(-c2ccc(OCCOCC(=O)N[C@H](C(=O)N3C[C@H](O)C[C@H]3C(=O)N[C@@H](C)c3ccc(-c4scnc4C)cc3)C(C)(C)C)nc2)cc1)[C@H]1CC[C@H](Nc2ncc3ccccc3n2)CC1 [Formula 131, (2S,4R)-1-((S)-3,3-dimethyl-2-(2-(2-((5-(4-(N-((1R,4R)-4-(quinazolin-2-ylamino)cyclohexyl)acetamido)phenyl)pyridin-2-yl)oxy)ethoxy)acetamido)butanoyl)-4-hydroxy-N—((S)-1-(4-(4-methylthiazol-5-yl)phenyl)ethyl)pyrrolidine-2-carboxamide] | 500 to 1000 | 500 to 1000 |  |
| CC(=O)N(c1ccc(-c2cnc(N3CCN(c4ccc5c(c4)C(=O)N(C4CCC(=O)NC4=O)C5=O)CC3)nc2)cc1)[C@H]1CC[C@H](Nc2ncc3ccccc3n2)CC1 (stereo partly shown) [Formula 158] | < 100 | < 100 |  |
| CC(=O)N(c1ccc(-c2ccc(N3C[C@H]4C[C@@H]3CN4CC(=O)N[C@H](C(=O)N3C[C@H](O)C[C@H]3C(=O)N[C@@H](C)c3ccc(-c4scnc4C)cc3)C(C)(C)C)nc2)cc1)[C@H]1CC[C@H](Nc2ncc3ccccc3n2)CC1 [Formula 143, (2S,4R)-1-((S)-3,3-dimethyl-2-(2-((1R,4R)-5-(5-(4-(N-((1R,4S)-4-(quinazolin-2-ylamino)cyclohexyl)acetamido)phenyl)pyridin-2-yl)-2,5-diazabicyclo[2.2.1]heptan-2-yl)acetamido)butanoyl)-4-hydroxy-N—((S)-1-(4-(4-methylthiazol-5-yl)phenyl)ethyl)pyrrolidine-2-carboxamide] | 100 to 500 | 100 to 500 |  |
| CC(=O)N(c1ccc(-c2ccc(N3CCN(C(=O)N[C@H](C(=O)N4C[C@H](O)CC4C(=O)N[C@@H](C)c4ccc(-c5scnc5C)cc4)C(C)(C)C)CC3)nc2)cc1)[C@H]1CC[C@H](Nc2ncc3ccccc3n2)CC1 (stereo partly shown) [Formula 145] | 3000 to 10000 |  | − |
| CC(=O)N(c1ccc(-c2cnc(N3CCN(Cc4cnn([C@H](C(=O)N5C[C@H](O)C[C@H]5C(=O)N[C@@H](C)c5ccc(-c6scnc6C)cc5)C(C)C)c4)CC3)nc2)cc1)[C@H]1CC[C@H](Nc2ncc3ccccc3n2)CC1 [Formula 153, (2S,4R)-4-hydroxy-1-((S)-3-methyl-2-(4-((4-(5-(4-(N-((1R,4R)-4-(quinazolin-2-ylamino)cyclohexyl)acetamido)phenyl)pyrimidin-2-yl)piperazin-1-yl)methyl)-1H-pyrazol-1-yl)butanoyl)-N—((S)-1-(4-(4-methylthiazol-5-yl)phenyl)ethyl)pyrrolidine-2-carboxamide] | < 100 | 100 to 500 |  |
| CC(=O)N(c1ccc(-c2cnc(N3CCN(c4cc(C(C(=O)N5C[C@H](O)C[C@H]5C(=O)N[C@@H](C)c5ccc(-c6scnc6C)cc5)C(C)C)on4)CC3)nc2)cc1)[C@H]1CC[C@@H](Nc2ncc3ccccc3n2)CC1 (single isomer, unassigned) [Formula 156] | < 100 | < 100 |  |
| CC(=O)N(c1ccc(-c2cnn(CC3CN(CC(=O)N[C@H](C(=O)N4C[C@H](O)C[C@H]4C(=O)N[C@@H](C)c4ccc(-c5scnc5C)cc4)C(C)(C)C)C3)c2)cc1)[C@H]1CC[C@H](Nc2ncc3ccccc3n2)CC1 (stereo in doubt) [Formula 140, (2S,4R)-1-((R)-3,3-dimethyl-2-(2-(3-((4-(4-(N-((1R,4R)-4-(quinazolin-2-ylamino)cyclohexyl)acetamido)phenyl)-1H-pyrazol-1-yl)methyl)azetidin-1-yl)acetamido)butanoyl)-4-hydroxy-N—((R)-1-(4-(4-methylthiazol-5-yl)phenyl)ethyl)pyrrolidine-2-carboxamide] | 500 to 1000 | 1000 to 3000 |  |
| CC(=O)N(c1ccc(-c2cnc(N3CCN(c4ccc5c(c4)C(=O)N(C4CCC(=O)NC4=O)C5=O)CC3)nc2)cc1)[C@H]1CC[C@H](Nc2ncc3ccccc3n2)CC1 (stereo partly shown) [Formula 107] | < 100 | < 100 |  |

The next lines start with the values.

| DC50 (CDK13) [nM] | DC50 (CDK12) [nM] | CDK12 degradation Activity (CDK12) | SMILES |
| --- | --- | --- | --- |
| 500 to 1000 | 1000 to 3000 |  | CC(=O)N(c1ccc(-c2cnc(O[C@H]3CCN(c4ccc5c(c4)C(=O)N(C4CCC(=O)NC4=O)C5=O)C3)nc2)cc1)[C@H]1CC[C@H](Nc2ncc3ccccc3n2)CC1 (stereo partly drawn) [Formula 110, N-(4-(2-(((3S)-1-(2-(2,6-dioxopiperidin-3-yl)-1,3-dioxoisoindolin-5-yl)pyrrolidin-3-yl)oxy)pyrimidin-5-yl)phenyl)-N-((1R,4R)-4-(quinazolin-2-ylamino)cyclohexyl)acetamide] |
| 3000 to 10000 | 3000 to 10000 |  | CC(=O)N(c1ccc(-c2cncc(C(=O)N[C@H]3CCC(=O)NC3=O)c2)cc1)[C@H]1CC[C@H](Nc2ncc3ccccc3n2)CC1 [Formula 128, N—((S)-2,6-dioxopiperidin-3-yl)-5-(4-(N-((1R,4S)-4-(quinazolin-2-ylamino)cyclohexyl)acetamido)phenyl)nicotinamide] |
| 1000 to 3000 | 1000 to 3000 |  | CC(=O)N(c1ccc(N2CCN(C3CN(c4ccc5c(c4)C(=O)N(C4CCC(=O)NC4=O)C5=O)C3)CC2)cc1)[C@H]1CC[C@H](Nc2ncc3ccccc3n2)CC1 (stereo partly drawn) [Formula 124, N-(4-(4-(1-(2-(2,6-dioxopiperidin-3-yl)-1,3-dioxoisoindolin-5-yl)azetidin-3-yl)piperazin-1-yl)phenyl)-N-((1R,4R)-4-(quinazolin-2-ylamino)cyclohexyl)acetamide] |
| 3000 to 10000 | 3000 to 10000 |  | CC(=O)N(c1ccc(-c2cnn(C3CN(c4ccc5c(c4)C(=O)N(C4CCC(=O)NC4=O)C5=O)C3)c2)cc1)[C@H]1CC[C@H](Nc2ncc3ccccc3n2)CC1 (stereo partly drawn) [Formula 113, N-(4-(1-(1-(2-(2,6-dioxopiperidin-3-yl)-1,3-dioxoisoindolin-5-yl)azetidin-3-yl)-1H-pyrazol-4-yl)phenyl)-N-((1R,4R)-4-(quinazolin-2-ylamino)cyclohexyl)acetamide] |
| 1000 to 3000 | 1000 to 3000 |  | CC(=O)N(c1ccc(N2CCN(C(=O)CNc3ccc4c(c3)C(=O)N(C3CCC(=O)NC3=O)C4=O)CC2)cc1)[C@H]1CC[C@H](Nc2ncc3ccccc3n2)CC1 (stereo partly drawn) [Formula 101, N-(4-(4-((2-(2,6-dioxopiperidin-3-yl)-1,3-dioxoisoindolin-5-yl)aminoacetyl)piperazin-1-yl)phenyl)-N-((1R,4R)-4-(quinazolin-2-ylamino)cyclohexyl)acetamide] |

Source: patent publication US20260327204A1, “DEGRADERS OF CYCLIN-DEPENDENT KINASE 12/13, COMPOSITIONS, AND USES THEREOF” (ZHEJIANG UNIVERSITY, priority 2023, published 2026)
